In US7683069B2, “3-substituted-4-pyrimidone derivatives” (Mitsubishi Tanabe Pharma Corporation, priority 2002, dated 2010) one finds IC50 data, which are given here for 25 compounds.

In this test the target is T1, bovine cerebral TPK1 (Bos taurus, UniProt A0A3Q1MT31).
T1 construct: bovine cerebral TPK1; from tissue; host or cells: bovine brain (cerebrum)
Briefly: Inhibitory activity against P-GS1 phosphorylation by bovine cerebral TPK1. In kind it is biochemical. As to conditions: 41.7 μM [γ-32P] ATP, 25° C., 2 hours, pH 6.5. The procedure: Inhibitory Activity of the Medicament of the Present Invention Against P-GS1 Phosphorylation by Bovine Cerebral TPK1
A mixture containing 100 mM MES-sodium hydroxide (pH 6.5), 1 mM magnesium acetate, 0.5 mM EGTA, 5 mM β-mercaptoethanol, 0.02% Tween 20, 10% glycerol, 12 μg/ml P-GS1, 41.7 μM [γ-^32P] ATP (68 kBq/ml), bovine cerebral TPK1 and a compound shown in Table (a final mixture contained 1.7% DMSO deriving from a solution of a test compound prepared in the presence of 10% DMSO) was used as a reaction system. The phosphorylation was started by adding ATP, and the reaction was conducted at 25° C. for 2 hours, and then stopped by adding 21% perchloric-acid on ice cooling. The reaction mixture was centrifuged at 12,000 rpm for 5 minutes and adsorbed on P81 paper (Whatmann), and then the paper was washed four times with 75 mM phosphoric acid, three times with water and once with acetone. The paper was dried, and the residual radioactivity was measured using a liquid scintillation counter.

T1 sequence (A0A3Q1MT31 1-419): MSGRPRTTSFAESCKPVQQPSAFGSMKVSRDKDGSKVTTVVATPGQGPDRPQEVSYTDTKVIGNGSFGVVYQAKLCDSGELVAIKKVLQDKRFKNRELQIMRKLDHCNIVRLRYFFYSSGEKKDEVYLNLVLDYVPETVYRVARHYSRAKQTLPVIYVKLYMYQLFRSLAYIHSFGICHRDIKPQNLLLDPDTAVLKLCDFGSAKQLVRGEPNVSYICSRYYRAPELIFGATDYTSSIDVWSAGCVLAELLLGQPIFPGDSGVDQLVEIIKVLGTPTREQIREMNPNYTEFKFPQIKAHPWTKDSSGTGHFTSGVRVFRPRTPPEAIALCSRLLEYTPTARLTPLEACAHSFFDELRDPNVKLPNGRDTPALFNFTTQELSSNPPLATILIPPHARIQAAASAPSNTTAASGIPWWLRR

Regarding `COc1ccc(C2=CCCN(c3nc(-c4ccncn4)cc(=O)n3C)C2)cc1` [Compound B022, 2-[5-(4-methoxyphenyl)-3,6-dihydro-2H-pyridin-1-yl]-3-methyl-6-pyrimidin-4-yl-3H-pyrimidin-4-one], 7.7 nM corresponded to half-maximal inhibition (IC50). The compound `Cn1c(N2CCC=C(c3ccc(C(=O)N4CCCC4)cc3)C2)nc(-c2ccncn2)cc1=O` [Compound B057, 2-[5-(4-pyrrolidinylcarbonylphenyl)-3,6-dihydro-2H-pyridin-1-yl]-3-methyl-6-pyrimidin-4-yl-3H-pyrimidin-4-one] gave an IC50 of 6.8 nM. With `Cn1c(N2CCC=C(c3cccs3)C2)nc(-c2ccncn2)cc1=O` [Compound B044, 2-(5-thiophen-2-yl-3,6-dihydro-2H-pyridin-1-yl)-3-methyl-6-pyrimidin-4-yl-3H-pyrimidin-4-one] the figure was 9 nM. As to `COc1ccccc1C1=CCCN(c2nc(-c3ccncc3)cc(=O)n2C)C1` [Compound A020, 2-[5-(2-methoxyphenyl)-3,6-dihydro-2H-pyridin-1-yl]-3-methyl-6-pyridin-4-yl-3H-pyrimidin-4-one], the IC50 was determined as 5 nM. Take `Cn1c(N2CCC=C(c3ccc(F)cc3)C2)nc(-c2ccncn2)cc1=O` [Compound B004, 2-[5-(4-fluorophenyl)-3,6-dihydro-2H-pyridin-1-yl]-3-methyl-6-pyrimidin-4-yl-3H-pyrimidin-4-one]: the IC50 was 6.3 nM. For `Cn1c(N2CCC=C(c3ccccc3F)C2)nc(-c2ccncn2)cc1=O` [Compound B002, 2-[5-(2-fluorophenyl)-3,6-dihydro-2H-pyridin-1-yl]-3-methyl-6-pyrimidin-4-yl-3H-pyrimidin-4-one], the concentration for half-maximal inhibition (IC50) came out at 1.1 nM. Consider `Cn1c(N2CCC=C(COc3ccc(F)cc3)C2)nc(-c2ccncc2)cc1=O` [Compound A056, 2-[5-(4-fluorophenoxymethyl)-3,6-dihydro-2H-pyridin-1-yl]-3-methyl-6-pyridin-4-yl-3H-pyrimidin-4-one], for which the IC50 stood at 27 nM. With `Cn1c(N2CCC=C(Cc3ccccc3)C2)nc(-c2ccncc2)cc1=O` [Compound A050, 2-(5-benzyl-3,6-dihydro-2H-pyridin-1-yl)-3-methyl-6-pyridin-4-yl-3H-pyrimidin-4-one], the IC50 was 8 nM.

`Cn1c(N2CCC=C(c3ccccc3C(F)(F)F)C2)nc(-c2ccncc2)cc1=O` [Compound A027, 2-[5-(2-trifluoromethylphenyl)-3,6-dihydro-2H-pyridin-1-yl]-3-methyl-6-pyridin-4-yl-3H-pyrimidin-4-one] had an IC50 of 31 nM. `Cn1c(N2CCC=C(c3ccc(F)cc3F)C2)nc(-c2ccncn2)cc1=O` [Compound B012, 2-[5-(2,4-difluorophenyl)-3,6-dihydro-2H-pyridin-1-yl]-3-methyl-6-pyrimidin-4-yl-3H-pyrimidin-4-one]: the IC50 was 3.9 nM. In the case of `COc1cccc(OC)c1C1=CCCN(c2nc(-c3ccncc3)cc(=O)n2C)C1` [Compound A026, 2-[5-(2,6-dimethoxyphenyl)-3,6-dihydro-2H-pyridin-1-yl]-3-methyl-6-pyridin-4-yl-3H-pyrimidin-4-one], the concentration for half-maximal inhibition (IC50) stood at 16 nM.

For the compound `Cn1c(N2CCC=C(c3ccccc3)C2)nc(-c2ccncc2)cc1=O` [Compound A001, 2-(5-phenyl-3,6-dihydro-2H-pyridin-1-yl)-3-methyl-6-pyridin-4-yl-3H-pyrimidin-4-one], the IC50 was determined as 7 nM. `COc1ccc(C2=CCCN(c3nc(-c4ccncc4)cc(=O)n3C)C2)cc1` [Compound A022, 2-[5-(4-methoxyphenyl)-3,6-dihydro-2H-pyridin-1-yl]-3-methyl-6-pyridin-4-yl-3H-pyrimidin-4-one] showed an IC50 of 8.7 nM. Consider `COc1cccc(OC)c1C1=CCCN(c2nc(-c3ccncn3)cc(=O)n2C)C1` [Compound B026, 2-[5-(2,6-dimethoxyphenyl)-3,6-dihydro-2H-pyridin-1-yl]-3-methyl-6-pyrimidin-4-yl-3H-pyrimidin-4-one], for which half-maximal inhibition (IC50) required 2.4 nM. As for `Cn1c(N2CCC=C(c3ccc(Cl)cc3Cl)C2)nc(-c2ccncn2)cc1=O` [Compound B017, 2-[5-(2,4-dichlorophenyl)-3,6-dihydro-2H-pyridin-1-yl]-3-methyl-6-pyrimidin-4-yl-3H-pyrimidin-4-one], inhibition was half-maximal at 5.6 nM (IC50).

`Cn1c(N2CCC=C(c3ccc(C(=O)N4CCCC4)cc3)C2)nc(-c2ccncc2)cc1=O` [Compound A057, 2-[5-(4-pyrrolidinylcarbonylphenyl)-3,6-dihydro-2H-pyridin-1-yl]-3-methyl-6-pyridin-4-yl-3H-pyrimidin-4-one] gave an IC50 of 24 nM. As to `Cn1c(N2CCC=C(c3ccccc3Cl)C2)nc(-c2ccncn2)cc1=O` [Compound B005, 2-[5-(2-chlorophenyl)-3,6-dihydro-2H-pyridin-1-yl]-3-methyl-6-pyrimidin-4-yl-3H-pyrimidin-4-one], the midpoint of inhibition, the IC50, lay at 0.38 nM.

`Cn1c(N2CCC=C(c3ccc(F)cc3)C2)nc(-c2ccncc2)cc1=O` [Compound A004, 2-[5-(4-fluorophenyl)-3,6-dihydro-2H-pyridin-1-yl]-3-methyl-6-pyridin-4-yl-3H-pyrimidin-4-one] displayed an IC50 of 13 nM. On to `Cn1c(N2CCC=C(c3ccccc3)C2)nc(-c2ccncn2)cc1=O` [Compound B001, 2-(5-phenyl-3,6-dihydro-2H-pyridin-1-yl)-3-methyl-6-pyrimidin-4-yl-3H-pyrimidin-4-one], for which it took 6.5 nM to reach half-maximal inhibition (IC50). `Cn1c(N2CCC=C(c3ccccc3F)C2)nc(-c2ccncc2)cc1=O` [Compound A002, 2-[5-(2-fluorophenyl)-3,6-dihydro-2H-pyridin-1-yl]-3-methyl-6-pyridin-4-yl-3H-pyrimidin-4-one] registered an IC50 of 1.2 nM. The compound `Cn1c(N2CCC=C(c3ccccc3C(F)(F)F)C2)nc(-c2ccncn2)cc1=O` [Compound B027, 2-[5-(2-trifluoromethylphenyl)-3,6-dihydro-2H-pyridin-1-yl]-3-methyl-6-pyrimidin-4-yl-3H-pyrimidin-4-one] showed a half-maximal inhibitory concentration (IC50) of 2.6 nM.

Regarding `Cn1c(N2CCC=C(c3ccsc3)C2)nc(-c2ccncn2)cc1=O` [Compound B043, 2-(5-thiophen-3-yl-3,6-dihydro-2H-pyridin-1-yl)-3-methyl-6-pyrimidin-4-yl-3H-pyrimidin-4-one], the IC50 was 17 nM. For `Cn1c(N2CCC=C(c3noc4ccccc34)C2)nc(-c2ccncn2)cc1=O` [Compound B049, 2-[5-(benzisoxazole-3-yl)-3,6-dihydro-2H-pyridin-1-yl]-3-methyl-6-pyrimidin-4-yl-3H-pyrimidin-4-one], the IC50 is 5.1 nM. On to `Cn1c(N2CCC=C(c3ccccc3-c3ccccc3)C2)nc(-c2ccncn2)cc1=O` [Compound B033, 2-(5-biphenyl-2-yl-3,6-dihydro-2H-pyridin-1-yl)-3-methyl-6-pyrimidin-4-yl-3H-pyrimidin-4-one], for which the IC50 stood at 17 nM. `Cn1c(N2CCC=C(c3ccc(F)cc3F)C2)nc(-c2ccncc2)cc1=O` [Compound A012, 2-[5-(2,4-difluorophenyl)-3,6-dihydro-2H-pyridin-1-yl]-3-methyl-6-pyridin-4-yl-3H-pyrimidin-4-one] displayed an IC50 of 17 nM.
